One test deals with T1, murine CCR2 (Mus musculus, UniProt P51683).
T1 construct: host or cells: U2OS β-arrestin cell line
Nature of the test: Functional β-arrestin recruiting test with human MCP-1 (B-2a). Format: cell-based. Conditions: U2OS β-arrestin cell line transfected with murine CCR2; agonist human MCP-1 at EC50 (about 3 nM); in some cases means of several determinations. As to the method:
The antagonistic action of test substances on CCR2 was determined in a β-arrestin test. The PathHunter β-arrestin GPCR test system (DiscoveRx Corporation, Ltd.) is a cell-based functional method for detecting binding of β-arrestin to an activated receptor. The molecular basis is a […] complementation measured by the enzymatic conversion of a chemiluminescent substrate. The test cell used was a U2OS β-arrestin cell line transfected with murine CCR2 (93-0543C3, DiscoveRx Corporation, Ltd.).
The test substances were dissolved in dimethyl sulphoxide (DMSO) at a concentration of 10 mM and serially diluted with DMSO in steps of 1:3.16 for a 10-point dose/activity analysis. According to the desired test concentrations, the substances were pre-diluted in Tyrode with 2 mM CaCl2 and 0.05% BSA.
The cells, cultivated in MEM Eagle (supplemented with 10% FCS, 50 U/ml of penicillin, 50 μg/ml of streptomycin, 250 μg/ml of hygromycin and 500 μg/ml of geniticin), were sown at 2000 cells/25 μl in 384 well, μCLEAR/black cell culture plates from Greiner (#781092) and incubated at 37° C. for 24 h. The sowing medium consisted of Opti-MEM (supplemented with 1% FCS, 50 U/ml of penicillin and 50 μg/ml of streptomycin). The cells were pre-incubated for 10 min with 10 μl of the test substances diluted in buffer, and 10 μl of agonist solution [human MCP-1 (PeproTech, #300-04) in Tyrode with 0.05% BSA) were then added. The human MCP-1 was employed at the concentration which corresponds to the EC50 which had been determined in a preliminary test (usually about 3 nM). After 90 min of incubation at 37° C., the solution was removed, and recruitment of β-arrestin to CCR2 was detected with the aid of the PathHunter detection reagent (93-001, DiscoveRx Corporation, Ltd.) according to the instructions of the manufacturer. Luminescence was measured after an incubation time of 60 min using a proprietary luminescence imaging measuring instrument. The molar concentration of the test substance which caused 50% inhibition of the MCP-1 effect (IC50) was determined using a 4-parameter logistic function (Hill function).
(Recruitment of arrestin is a read-out of receptor activation apart from second messengers.)

The next test addresses T2, human CCR2 (Homo sapiens, UniProt P41597).
T2 construct: host or cells: Chem-1 cell line
T2 sequence (P41597 1-360 isoform P41597-2): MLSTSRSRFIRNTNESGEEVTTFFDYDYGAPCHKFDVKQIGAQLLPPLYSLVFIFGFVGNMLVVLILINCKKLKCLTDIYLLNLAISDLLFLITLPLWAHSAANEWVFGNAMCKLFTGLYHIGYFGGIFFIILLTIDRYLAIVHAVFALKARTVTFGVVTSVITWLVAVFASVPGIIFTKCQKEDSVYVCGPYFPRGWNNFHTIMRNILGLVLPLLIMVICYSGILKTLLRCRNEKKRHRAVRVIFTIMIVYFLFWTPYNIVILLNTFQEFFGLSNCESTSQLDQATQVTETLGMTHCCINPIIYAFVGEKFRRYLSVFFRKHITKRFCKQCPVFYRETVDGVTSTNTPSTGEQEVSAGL
Briefly: Functional Ca2+ release test (B-1). Format: cell-based. Conditions: Chem-1 cell line transfected with human CCR2; 50% inhibition of the MCP-1 effect, MCP-1 at EC50 (about 5 nM); in some cases means of several determinations. A digest of the protocol:
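Chem-1 cells expressing human CCR2, loaded with Fluo-4 for 60 min at 37° C, were preincubated 10 min with compound (10-point, 1:3.16 dilutions), then stimulated with MCP-1 at its predetermined EC50 (about 5 nM). Ca2+ release was monitored for 120 s. IC50 came from a 4-parameter Hill fit.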

Structures are written as SMILES.

The IC50 is the concentration needed to halve the response being measured.

T1 sequence (P51683 whole entry): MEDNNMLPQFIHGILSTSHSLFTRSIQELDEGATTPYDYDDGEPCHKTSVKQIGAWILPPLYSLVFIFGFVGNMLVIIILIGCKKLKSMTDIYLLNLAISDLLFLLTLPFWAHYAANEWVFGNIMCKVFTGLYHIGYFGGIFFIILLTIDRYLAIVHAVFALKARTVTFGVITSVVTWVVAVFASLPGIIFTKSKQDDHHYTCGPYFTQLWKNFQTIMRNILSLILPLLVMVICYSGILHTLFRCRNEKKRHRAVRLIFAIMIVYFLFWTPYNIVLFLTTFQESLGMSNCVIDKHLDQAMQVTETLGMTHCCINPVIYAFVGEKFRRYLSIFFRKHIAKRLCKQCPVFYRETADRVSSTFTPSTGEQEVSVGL

Take `Cn1cc(Nc2nc(C(F)(F)F)c(Oc3ccc(Cl)c(Cl)c3)c(=O)[nH]2)cn1` [Example 110, 5-(3,4-dichlorophenoxy)-2-[(1-methyl-1H-pyrazol-4-yl)amino]-6-(trifluoromethyl)pyrimidin-4(3H)-one]: the IC50 on murine CCR2 is 730 nM; on human CCR2 it was 41 nM.
For `O=c1[nH]c(-c2noc(C(F)(F)F)n2)nc(C(F)(F)F)c1Oc1ccc(Cl)c(Cl)c1` [Example 84, 5-(3,4-Dichlorophenoxy)-6-(trifluoromethyl)-2-[5-(trifluoromethyl)-1,2,4-oxadiazol-3-yl]pyrimidin-4(3H)-one], in that order: 86 nM and 9.2 nM.
For the compound `Cc1ccc(-c2nc(C(F)(F)F)c(Cc3ccc(Cl)c(Cl)c3)c(=O)[nH]2)nc1` [Example 19], the IC50 on murine CCR2 turned out to be 300 nM; against human CCR2, 9.7 nM.
For `Cn1ncc(-c2nc(C(F)(F)F)c(Oc3ccc(Cl)c(C(F)(F)F)c3)c(=O)[nH]2)c1N` [Example 67, 2-(5-amino-1-methyl-1H-pyrazol-4-yl)-5-[4-chloro-3-(trifluoromethyl)phenoxy]-6-(trifluoromethyl)pyrimidin-4(3H)-one], in that order: 150 nM and 8.3 nM.
On to `O=c1[nH]c(-c2cn[nH]c2)nc(C(F)(F)F)c1Cc1ccc(Cl)c(Cl)c1` [Example 63, 5-(3,4-dichlorobenzyl)-2-(1H-pyrazol-4-yl)-6-(trifluoromethyl)pyrimidin-4(3H)-one], for which the results for the IC50 on murine CCR2 and against human CCR2 were 100 nM and 5.5 nM, respectively.
For `O=c1[nH]c(-c2ncccc2Cl)nc(C(F)(F)F)c1Oc1cccc(Cl)c1` [Example 12, 5-(3-chlorophenoxy)-2-(3-chloropyridin-2-yl)-6-(trifluoromethyl)pyrimidin-4(3H)-one], in that order: 100 nM and 75 nM.
Regarding `COc1cnccc1-c1nc(C(F)(F)F)c(Cc2ccc(Cl)c(Cl)c2)c(=O)[nH]1` [Example 26], the IC50 at murine CCR2 came to 190 nM; against human CCR2 it was 3.2 nM.
Take `O=c1[nH]c(-c2noc(C3CC3)n2)nc(C(F)(F)F)c1Oc1ccc(Cl)c(Cl)c1` [Example 82, 2-(5-cyclopropyl-1,2,4-oxadiazol-3-yl)-5-(3,4-dichlorophenoxy)-6-(trifluoromethyl)pyrimidin-4(3H)-one x N,N-diisopropylethylamine]: the results for the IC50 on murine CCR2 and on human CCR2 were 150 nM and 19 nM, respectively.
In the same order, the values of `COc1ccc2nc(-c3nc(C(F)(F)F)c(Oc4ccc(Cl)c(Cl)c4)c(=O)[nH]3)ccc2c1` [Example 177, 5-(3,4-dichlorophenoxy)-2-(6-methoxyquinolin-2-yl)-6-(trifluoromethyl)pyrimidin-4(3H)-one] are 1500 nM and 51 nM.
For `CC(C)c1nc(-c2nc(C(F)(F)F)c(Oc3ccc(Cl)c(Cl)c3)c(=O)[nH]2)no1` [Example 80, 5-(3,4-Dichlorophenoxy)-2-[5-(propan-2-yl)-1,2,4-oxadiazol-3-yl]-6-(trifluoromethyl)pyrimidin-4(3H)-one x N,N-diisopropylethylamine], in that order: 160 nM and 32 nM.
As to `O=c1[nH]c(-c2cccc(O)n2)nc(C(F)(F)F)c1Oc1ccc(Cl)c(Cl)c1` [Example 31, 5-(3,4-dichlorophenoxy)-2-(6-hydroxypyridin-2-yl)-6-(trifluoromethyl)pyrimidin-4(3H)-one], the IC50 is 1400 nM on murine CCR2 and 150 nM against human CCR2.
For `CC1(C)NC(c2nc(C(F)(F)F)c(Oc3ccc(Cl)c(C(F)(F)F)c3)c(=O)[nH]2)=NO1` [Example 87, 5-[4-Chloro-3-(trifluoromethyl)phenoxy]-2-(5,5-dimethyl-4,5-dihydro-1,2,4-oxadiazol-3-yl)-6-(trifluoromethyl)pyrimidin-4(3H)-one], in that order: 54 nM and 14 nM.
`O=c1[nH]nc(Cc2nc(C(F)(F)F)c(Cc3ccc(Cl)c(Cl)c3)c(=O)[nH]2)o1` [Example 89, 5-(3,4-Dichlorobenzyl)-2-[(5-oxo-4,5-dihydro-1,3,4-oxadiazol-2-yl)methyl]-6-(trifluoromethyl)pyrimidin-4(3H)-one]: the IC50 at murine CCR2 was 370 nM; at human CCR2, 11 nM.
`O=c1[nH]c(-c2ncc(C(F)(F)F)cc2Cl)nc(C(F)(F)F)c1Oc1ccc(Cl)c(Cl)c1` [Example 6, 2-[3-chloro-5-(trifluoromethyl)pyridin-2-yl]-5-(3,4-dichlorophenoxy)-6-(trifluoromethyl)pyrimidin-4(3H)-one]: the IC50 at murine CCR2 was 150 nM; against human CCR2, 4.8 nM.
As to `O=c1[nH]c(Cc2cccs2)nc(C(F)(F)F)c1Cc1ccc(Cl)c(Cl)c1` [Example 172], the half-inhibitory concentration (IC50) on murine CCR2 is 140 nM; on human CCR2 it was 62 nM.
For `COc1cccc(Nc2nc(C(F)(F)F)c(Oc3ccc(Cl)c(Cl)c3)c(=O)[nH]2)n1` [Example 101, 5-(3,4-dichlorophenoxy)-2-[(6-methoxypyridin-2-yl)amino]-6-(trifluoromethyl)pyrimidin-4(3H)-one], in that order: 11000 nM and 430 nM.
For `CCOC(=O)C1CCN(c2nc(C(F)(F)F)c(Cc3ccc(Cl)c(Cl)c3)c(=O)[nH]2)CC1` [Example 176, ethyl 1-[5-(3,4-dichlorobenzyl)-6-oxo-4-(trifluoromethyl)-1,6-dihydropyrimidin-2-yl]piperidine-4-carboxylate], in that order: 460 nM and 45 nM.
In the same order, the values of `Cc1cccc(-c2nc(C(F)(F)F)c(Cc3ccc(Cl)c(Cl)c3)c(=O)[nH]2)n1` [Example 25, 5-(3,4-dichlorobenzyl)-2-(6-methylpyridin-2-yl)-6-(trifluoromethyl)pyrimidin-4(3H)-one] are 790 nM and 33 nM.
Regarding `O=c1[nH]c(-c2cc[nH]n2)nc(C(F)(F)F)c1Cc1ccc(Cl)c(C(F)(F)F)c1` [Example 72, 5-[4-chloro-3-(trifluoromethyl)benzyl]-2-(1H-pyrazol-3-yl)-6-(trifluoromethyl)pyrimidin-4(3H)-one], the IC50 on murine CCR2 amounted to 19 nM; against human CCR2, 0.7 nM.
In the same order, the values of `O=C1OCCN1c1nc(C(F)(F)F)c(Cc2ccc(Cl)c(Cl)c2)c(=O)[nH]1` [Example 112, 5-(3,4-Dichlorobenzyl)-2-(2-oxo-1,3-oxazolidin-3-yl)-6-(trifluoromethyl)pyrimidin-4(3H)-one] are 380 nM and 27 nM.
For `O=C(O)c1cc(O)n(-c2nc(C(F)(F)F)c(Cc3ccc(Cl)c(Cl)c3)c(=O)[nH]2)n1` [Example 88, 1-[5-(3,4-Dichlorobenzyl)-6-oxo-4-(trifluoromethyl)-1,6-dihydropyrimidin-2-yl]-5-hydroxy-H-pyrazole-3-carboxylic acid], in that order: 6100 nM and 18 nM.
Consider `O=c1[nH]c(Cc2ccccn2)nc(C(F)(F)F)c1Cc1ccc(Cl)c(Cl)c1` [Example 94, 5-(3,4-dichlorobenzyl)-2-(pyridin-2-ylmethyl)-6-(trifluoromethyl)pyrimidin-4(3H)-one], for which the results for the IC50 on murine CCR2 and at human CCR2 were 420 nM and 90 nM, respectively.
In the same order, the values of `N=c1[nH]c(-c2nc(C(F)(F)F)c(Oc3ccc(Cl)c(Cl)c3)c(=O)[nH]2)no1` [Example 85, 5-(3,4-Dichlorophenoxy)-2-(5-imino-4,5-dihydro-1,2,4-oxadiazol-3-yl)-6-(trifluoromethyl)pyrimidin-4(3H)-one] are 96 nM and 31 nM.
In the same order, the values of `O=c1[nH]c(-c2cccc(Cl)n2)nc(C(F)(F)F)c1Oc1ccc(Cl)c(Cl)c1` [Example 10, 2-(6-chloropyridin-2-yl)-5-(3,4-dichlorophenoxy)-6-(trifluoromethyl)pyrimidin-4(3H)-one] are 140 nM and 15 nM.

The values are drawn from patent US20160237059A1, “HETEROCYCLIC SUBSTITUTED TRIFLUOROMETHYL PYRIMIDINONES AND THEIR USE” (BAYER PHARMA AKTIENGESELLSCHAFT, priority 2013, published 2016).
